Target: T1, PEDV 3CL^pro (Porcine epidemic diarrhea virus CV777, UniProt P0C6Y4)
T1 construct: gene rep; mature nsp5 cut from replicase polyproteins pp1a/pp1ab; N- and C-terminal His tags (kept, no cleavage told), pET-28a(+), E. coli BL21(DE3), nickel column; docking used PDB 4XFQ
T1 sequence (P0C6Y4 2998-3299 limits assumed): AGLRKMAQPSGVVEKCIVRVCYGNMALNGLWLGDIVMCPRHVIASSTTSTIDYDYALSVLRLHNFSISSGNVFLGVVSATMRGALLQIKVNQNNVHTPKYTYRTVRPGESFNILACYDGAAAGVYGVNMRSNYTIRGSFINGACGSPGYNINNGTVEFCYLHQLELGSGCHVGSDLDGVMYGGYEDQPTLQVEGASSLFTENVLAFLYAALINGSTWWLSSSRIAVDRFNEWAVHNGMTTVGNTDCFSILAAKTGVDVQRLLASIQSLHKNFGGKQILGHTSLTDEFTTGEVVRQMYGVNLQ
Test: FRET protease assay, Dabcyl/Edans peptide
Format: biochemical
Conditions: not given

Structure (SMILES)	IC50
O=c1cc(-c2ccccc2)oc2cc(O)c(O)c(O)c12 [Baicalein]	9.5 ± 1.02 µM
O=C(O)[C@H]1O[C@@H](Oc2cc3oc(-c4ccccc4)cc(=O)c3c(O)c2O)[C@H](O)[C@@H](O)[C@@H]1O [Baicalin]	65.8 ± 6.57 µM

Target: T1, PEDV 3CL^pro
Test: FRET protease assay, Dabcyl/Edans peptide
Format: biochemical
Conditions: read-out: Inhibitory rate
From the text: FRET protease assay, Dabcyl/Edans peptide on PEDV 3CL^pro

Structure (SMILES)	inhibition at 20 µM
O=c1c(O)c(-c2cc(O)c(O)c(O)c2)oc2cc(O)cc(O)c12 [compound 6, Myricetin]	75.3 ± 2.33%
O=c1c(O)c(-c2ccc(O)c(O)c2)oc2cc(O)c(O)c(O)c12 [compound 3, Quercetagetin]	91.8 ± 2.74%
O=c1c(O)c(-c2ccc(O)c(O)c2)oc2cc(O)ccc12 [compound 2, Fisetin]	96.8 ± 2.64%
O=C(O[C@@H]1Cc2c(O)cc(O)cc2O[C@H]1c1cc(O)c(O)c(O)c1)c1cc(O)c(O)c(O)c1 [compound 1, (−)-Gallocatechin gallate]	97.65 ± 0.35%
O=c1c(-c2ccc(O)cc2)coc2cc(O)ccc12 [compound 4, Daidzein]	91.26 ± 0.85%
